Test results published in US7419984B2, “Pyrimidines and uses thereof” (Cell Therapeutics, Inc., priority 2002, dated 2008).

target: T1, human LPAAT-β (Homo sapiens, UniProt O15120); assay: LPAAT-β cell-free assay; format: biochemical; details: Sf9 cell membrane overexpressing recombinant LPAAT-β
T1 construct: the full-length human LPAAT-β cDNA was amplified by PCR; poly-histidine tag (N); made in house; host or cells: Sf9 insect cells (baculovirus, pFastBac HTc); the membrane fraction was used as the enzyme
T1 sequence (O15120 24-278): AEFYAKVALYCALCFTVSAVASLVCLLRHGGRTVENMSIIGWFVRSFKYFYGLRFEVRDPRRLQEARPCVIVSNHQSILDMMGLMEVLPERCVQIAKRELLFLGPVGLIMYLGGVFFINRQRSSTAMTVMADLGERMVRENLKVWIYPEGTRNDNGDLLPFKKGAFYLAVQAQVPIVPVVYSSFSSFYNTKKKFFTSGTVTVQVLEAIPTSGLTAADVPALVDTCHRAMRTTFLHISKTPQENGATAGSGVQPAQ
Outline: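 Membranes from Sf9 cells expressing His/myc-tagged full-length human LPAAT-β were used in HEPES-saline pH 7.5 with 1 mg/ml BSA. Compound was added from a 200 μM DMSO stock, and reaction with 18:1-CoA and sn-1-18:1 lysoPA (1 mM stocks) ran 25 min at RT. Released CoA was detected with DTNB at 405 nm; a radiometric variant used 200 μM [14C]18:1-CoA and 200 μM lysoPA.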

IC50 [nM]	Structure (SMILES)
73	Cc1ccc(Cl)cc1-c1cc(Nc2ccc(F)cc2)nc(N)n1 [Example 97, 6-(5-Chloro-2-methyl-phenyl)-N*4*-(4-fluoro-phenyl)-pyrimidine-2,4-diamine]
91	Nc1nc(Nc2ccc(Cl)cc2)cc(-c2cc(Cl)cc(Cl)c2Cl)n1 [Example 98, N*4*-(4-Chloro-phenyl)-6-(2,3,5-trichloro-phenyl)-pyrimidine-2,4-diamine]
130	Nc1nc(Nc2ccc(Br)cc2)cc(-c2cc(Cl)cc(Cl)c2Cl)n1 [Example 99, N*4*-(4-Bromo-phenyl)-6-(2,3,5-trichloro-phenyl)-pyrimidine-2,4-diamine]
49	Cc1ccc(Br)cc1-c1cc(Nc2ccc(CCO)cc2)nc(N)n1 [Example 100, 2-{4-[2-Amino-6-(5-bromo-2-methyl-phenyl)-pyrimidin-4-ylamino]-phenyl}-ethanol]
290	Cc1ccc(Br)cc1-c1cc(Nc2ccc(CCCCO)cc2)nc(N)n1 [Example 101, 4-{4-[2-Amino-6-(5-bromo-2-methyl-phenyl)-pyrimidin4-ylamino]-phenyl}-butan-1-ol]
500	Nc1nc(Nc2ccc(C(F)(F)F)cc2)cc(-c2cc(Cl)cc(Cl)c2Cl)n1 [Example 102, 6-(2,3,5-trichloro-phenyl) N*4*-(4-trifluoromethyl-phenyl)-pyrimidine-2,4-diamine]
54	Cc1ccc(Cl)cc1-c1cc(Nc2ccc(C(O)C(F)(F)F)cc2)nc(N)n1 (stereo not shown) [Example 103, 1-{4-[2-Amino-6-(5-chloro-2-methyl-phenyl)-pyrimidin4-ylamino]-phenyl}-2,2,2-trifluoro-ethanol]
160	CC(=NO)c1ccc(Nc2cc(-c3cc(Cl)ccc3C)nc(N)n2)cc1 [Example 104, 1-{4-[2-Amino-6-(5-chloro-2-methyl-phenyl)-pyrimidin-4-ylamino]-phenyl}-ethanone-oxime]
1800	Nc1nc(Nc2ccc(Cl)cc2)cc(-c2ccccc2C(F)(F)F)n1 [Example 105, N*4*-(4-Chloro-phenyl)-6-(2-trifluoromethyl-phenyl)-pyrimidine-2,4-diamine]
1100	Nc1nc(Nc2ccc(Cl)cc2)cc(-c2ccccc2)n1 [Example 106, N*4*-(4-Chloro-phenyl)-6-phenyl-pyrimidine-2,4-diamine]
15	Cc1ccc(Cl)cc1-c1cc(Nc2ccc([N+](=O)[O-])cc2)nc(N)n1 [Example 108, 6-(5-Chloro-2-methyl-phenyl)-N*4*-(4-nitro-phenyl)-pyrimidine-2,4-diamine]
850	Cc1ccc(Cl)cc1-c1cc(Nc2ccc(CCCO)cc2)nc(N)n1 [Example 109, 3-{4-[2-Amino-6-(5-Chloro-2-methyl-phenyl)-pyrimidin-4-ylamino]-phenyl}-propan-1-ol]
210	Cc1ccc(Cl)cc1-c1cc(Nc2ccc(CCCCO)cc2)nc(N)n1 [Example 110, 4-{4-[2-Amino-6-(5-Chloro-2-methyl-phenyl)-pyrimidin-4-ylamino]-phenyl}-butan-1-ol]
280	CSc1cccc(Nc2cc(-c3cc(Cl)ccc3C)nc(N)n2)c1 [Example 111, 6-(5-Chloro-2-methyl-phenyl)-N*4*-(3-methylsulfanyl-phenyl)-pyrimidine-2,4-diamine]
640	Nc1nc(Nc2ccc(C(F)(F)F)cc2)cc(-c2cc(Cl)cc(Cl)c2)n1 [Example 112, 6-(3,5-Dichloro-phenyl)-N*4*-(4-trifuoromethyl-phenyl)-pyrimidine-2,4-diamine]
190	Cc1ccc(Cl)cc1-c1cc(Nc2ccc(Cl)c(CO)c2)nc(N)n1 [Example 113, {5-[2-Amino-6-(5-chloro-2-methyl-phenyl)-pyrimidin-4-ylamino]-2-chloro-phenyl}-methanol]

IC50 [nM]	Structure (SMILES)
42	CCOC(=O)c1cccc(Nc2cc(-c3cc(Cl)ccc3C)nc(N)n2)c1 [Example 114, 3-[2-Amino-6-(5-chloro-2-methyl-phenyl)-pyrimidin4-ylamino]-benzoic acid ethyl ester]
210	CCc1cccc(Nc2cc(-c3cc(Cl)ccc3C)nc(N)n2)c1 [Example 115, 6-(5-Chloro-2-methyl-phenyl)-N*4*-(3-ethyl-phenyl)-pyrimidine-2,4-diamine]
1100	Cc1ccc(Cl)cc1-c1cc(Nc2ccc(C(CO)CO)cc2)nc(N)n1 [Example 116, 2-{4-[2-Amino-6-(5-chloro-2-methyl-phenyl)-pyrimidin-2-yl-amino]-phenyl}-propane-1,3-diol]
4900	CCOc1ccc(Cl)cc1-c1cc(Nc2ccccc2Cl)nc(N)n1 [Example 117, 6-(5-Chloro-2-ethoxy-phenyl)-N*4*-(2-chloro-phenyl)-pyrimidine-2,4-diamine]
710	Nc1nc(Nc2ccc(Cl)cc2)cc(-c2cccc(Cl)c2Cl)n1 [Example 118, 6-(2,3-Dichloro-phenyl)-N*4*-(4-chloro-phenyl)-pyrimidine-2,4-diamine]
610	Nc1nc(Nc2ccc(C(F)(F)F)cc2)cc(-c2cccc(Br)c2)n1 [Example 119, 6-(3-Bromo-phenyl)-N*4*-(4-trifluoromethyl-phenyl)-pyrimidine-2,4-diamine]
180	CCOc1ccc(Cl)cc1-c1cc(Nc2ccc(CC(C)(C)O)cc2)nc(N)n1 [Example 120, 1-{4-[2-amino-6-(5-chloro-2-ethoxyphenyl)pyrimidin-4-ylamino]phenyl}-2-methyl-propan-2-ol]
49	CCOc1ccc(Cl)cc1-c1cc(Nc2ccc(C(C)=O)cc2)nc(N)n1 [Example 121, 1-{4-[2-amino-6-(5-chloro-2-ethoxyphenyl)pyrimidin-4-ylamino]phenyl}ethanone]
1200	CCOc1ccc(Cl)cc1-c1cc(N(C)c2ccc(Cl)cc2)nc(N)n1 [Example 122, 6-(5-chloro-2-ethoxyphenyl)-N*4*-(4-chlorophenyl)-N*4*-methylpyrimidine-2,4-diamine]
150	CC(=O)c1ccc(Nc2cc(-c3cc(Cl)ccc3C)nc(N)n2)cc1 [Example 123, 1-{4-[2-amino-6-(5-chloro-2-methylphenyl)pyrimidin4-ylamino]phenyl}ethanone]
110	CCOc1ccc(Cl)cc1-c1cc(Nc2ccc(S(C)(=O)=O)cc2)nc(N)n1 [Example 124, 6-(5-chloro-2-ethoxyphenyl)-N*4*-(4-methanesulfonylphenyl)pyrimidine-2,4-diamine]
90	Cc1ccc(Cl)cc1-c1cc(Nc2ccc3[nH]nnc3c2)nc(N)n1 [Example 125, N*4*-(1H-Benzotriazol-5-yl)-6-(5-chloro-2-methylphenyl)pyrimidine-2,4-diamine]
500	Cc1ccc(Cl)cc1-c1cc(Nc2ccc(C(F)(F)F)nc2)nc(N)n1 [Example 126, 6-(5-chloro-2-methylphenyl)-N*4*-(6-trifluoromethylpyridin-3-yl)pyrimidine-2,4-diamine]
34	CCOc1ccc(Br)cc1-c1cc(Nc2ccc(C(C)=O)cc2)nc(N)n1 [Example 127, 1-{4-[2-amino-6-(5-bromo-2-ethoxyphenyl)pyrimidin-4-ylamino]phenyl}ethanone]
190	CCOc1ccc(Br)cc1-c1cc(Nc2ccc(C(F)(F)F)nc2)nc(N)n1 [Example 128, 6-(5-bromo-2-ethoxyphenyl)-N*4*-(6-trifluoromethylpyridin-3-yl)-pyrimidine-2,4-diamine]
